The text below walks through data of ChEMBL document CHEMBL4043224, “d-Amino acid mutation of PMI as potent dual peptide inhibitors of p53-MDM2/MDMX interactions” (Bioorg Med Chem Lett, 2017).

Series [1] in a line: Cytotoxicity against human U87 cells assessed as reduction in cell viability after 24 hrs by MTT assay. Conditions: U-87 MG. (In general: Tetrazolium assays rely on reduction of a dye to a coloured formazan, in cell work by metabolically active cells.)
Series [2] deals with T1, Cathepsin G (Homo sapiens, UniProt P08311).
T1 sequence (P08311 whole entry): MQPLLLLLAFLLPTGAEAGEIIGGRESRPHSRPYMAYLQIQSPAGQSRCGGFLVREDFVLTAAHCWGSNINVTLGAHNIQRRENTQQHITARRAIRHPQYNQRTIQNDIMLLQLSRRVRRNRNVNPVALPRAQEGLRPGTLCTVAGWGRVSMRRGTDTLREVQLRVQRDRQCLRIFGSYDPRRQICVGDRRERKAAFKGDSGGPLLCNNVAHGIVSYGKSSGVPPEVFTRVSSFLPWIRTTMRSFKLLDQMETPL
As to the kind of experiment: Drug metabolism assessed as cathepsin G (unknown origin)-mediated compound hydrolysis after 4 hrs by RP-HPLC analysis. Type of series: ADME.

The target of series [3] is T1, Cathepsin G. As to the kind of experiment: Drug metabolism assessed as cathepsin G (unknown origin)-mediated compound hydrolysis after 8 hrs by RP-HPLC analysis. Type of series: ADME.

A word on the IC50: it is the midpoint of a concentration-inhibition curve. With `COc1ccc(C2=N[C@H](c3ccc(Cl)cc3)[C@H](c3ccc(Cl)cc3)N2C(=O)N2CCNC(=O)C2)c(OC(C)C)c1`, the concentration for half-maximal inhibition (IC50) in series [1] turned out to be 5.93 µM.
Same read-out and setting: the same measure for `CC(C)C[C@H](NC(=O)[C@H](CC(N)=O)NC(=O)[C@H](Cc1c[nH]c2ccccc12)NC(=O)[C@H](Cc1ccc(O)cc1)NC(=O)[C@H](CCC(=O)O)NC(=O)[C@H](C)NC(=O)[C@H](Cc1ccccc1)NC(=O)[C@H](CO)NC(=O)[C@@H](N)[C@@H](C)O)C(=O)N[C@@H](CC(C)C)C(=O)N[C@@H](C(=O)N1CCC[C@H]1C(=O)O)[C@H](C)O`: 45.7 µM; for `CC(C)C[C@H](NC(=O)[C@H](CC(N)=O)NC(=O)[C@H](Cc1c[nH]c2ccccc12)NC(=O)[C@H](Cc1ccc(O)cc1)NC(=O)[C@H](CCC(=O)O)NC(=O)[C@H](C)NC(=O)[C@H](Cc1ccccc1)NC(=O)[C@H](CO)NC(=O)[C@@H](N)[C@@H](C)O)C(=O)N[C@@H](CC(C)C)C(=O)N[C@H](Cc1cnc[nH]1)C(=O)N1CCC[C@H]1C(=O)O`: 43.5 µM.
Consider H-TSFAEYWNLLSP-OH, for which the Drug metabolism entry on Cathepsin G [2] is “Metabolite_Detected”. For the same molecule, the half-inhibitory concentration (IC50) in series [1] stood at 67.6 µM.
For the molecule `CC(C)C[C@H](NC(=O)[C@H](CC(N)=O)NC(=O)[C@H](Cc1c[nH]c2ccccc12)NC(=O)[C@H](Cc1ccc(O)cc1)NC(=O)[C@H](CCC(=O)O)NC(=O)[C@H](C)NC(=O)[C@H](Cc1ccccc1)NC(=O)[C@H](CO)NC(=O)[C@@H](N)[C@@H](C)O)C(=O)N[C@@H](CC(C)C)C(=O)N[C@H](Cc1ccccc1)C(=O)N1CCC[C@H]1C(=O)O`, the Drug metabolism result at Cathepsin G [3] is on record as “Metabolite_Detected”. In addition, in series [1], the IC50 was determined as 54.3 µM.
Turning to `CC(C)C[C@H](NC(=O)[C@H](CC(N)=O)NC(=O)[C@H](Cc1c[nH]c2ccccc12)NC(=O)[C@H](Cc1ccc(O)cc1)NC(=O)[C@H](CCC(=O)O)NC(=O)[C@H](C)NC(=O)[C@H](Cc1ccccc1)NC(=O)[C@H](CO)NC(=O)[C@@H](N)[C@@H](C)O)C(=O)N[C@@H](CC(C)C)C(=O)N[C@H](Cc1ccc(O)cc1)C(=O)N1CCC[C@H]1C(=O)O`, the IC50 in series [1] is 30.9 µM.
